Patent publication US8518959B2, “Quinoxaline derivatives as antitumor agents” (Prolexys Pharmaceuticals, Inc., priority 2005, dated 2013)

Assays:
HT-1080 xenografts = assay: HT-1080 tumor treatment study; format: in vivo, mouse; details: nude mice, 50 or 100 mg/Kg QD×5 days IP
Description: • Nude Balb/c (Nu/Nu strain, Charles River Laboratories), female, 5-6 week old (˜20 g average body weight). Formulation of Test Articles:
Both compounds were formulated in an identical manner. For the 100 mg/kg dose level, each compound was delivered at a concentration of 10.0 mg/ml, in an injection volume of 0.2 ml. For the 50 mg/kg dose level, each compound was delivered at a concentration of 5.0 mg/ml, in an injection volume of 0.2 ml. For both dose levels, the vehicle contained 0.025% Tween-80, 0.01% benzyl alcohol, 35 mM acetic acid (HOAc), 100 mM potassium phosphate buffer, and 32 mM sucrose, pH 6.5.
• A: PRLX compound 6@100 mg/Kg, QD×5 days, IP, n=8 • B: PRLX compound 6@50 mg/Kg, QD×5 days, IP, n=8 • C: PRLX compound 5@100 mg/Kg, QD×5 days, IP, n=8 • D: PRLX compound 5@50 mg/Kg, QD×5 days, IP, n=8 • E: Vehicle Control, QD×5 days, IP, n=8 • F: Untreated Control, n=8 Treatment Schedule: […]
Starting on Day 1, all animals were weighed, and tumor dimensions (length (L) and width (W)) were measured, every other day. […]
The resulting tumor volume values were averaged for each study group for each time point, and were then plotted against time. Variance was expressed as standard error of the mean (±SEM).

PANC-1 xenografts = assay: PANC-1 tumor treatment study; format: in vivo, mouse; details: nude mice, once a day for five consecutive days
Description: The experimental plan for the PANC-1 study was essentially identical to that of the HT-1080 study outlined above in Example 10 with the following exceptions: approximately 3040 mg fragment of passaged PANC-1 tumor tissue was implanted subcutaneously in the right flank of an immunodeficient nude mouse. Tumor growth was monitored daily and when the tumors reached approximately 100 mm^3, animals harboring similarly sized tumors were group matched and compound dosing was initiated. Administration of compound 5 occurred once a day for five consecutive days at the doses listed below. In the PANC-1 xenografts, gemcitabine, administered at the maximum tolerated dose for the model, was used as a control. The gemcitabine regimen was 180 mg/kg […] on every third day over a period of 9 days.

[1] = system: BJ-TERT/LT/ST/RAS^V12 cells; assay: Nuclear morphology assay; format: cell-based, human; details: fluorescence microscopy, 18 hours
Source text: Applicants sought to characterize the type of cell death induced by CPT and erastin in tumorigenic BJ-TERT/LT/ST/RAS^V12 cells. […] To determine whether erastin or CPT induces apoptosis in their system, Applicants monitored the nuclear morphology of CPT- and erastin-treated tumorigenic cells using fluorescence microscopy. […] Since nuclear morphological change is required of apoptotic cells, Applicants conclude that cell death induced by erastin is non-apoptotic. […] Additionally, nuclei remained intact in erastin-treated tumor cells (FIG. 9).
200,000 tumorigenic BJ-TERT/LT/ST/RAS^V12 cells were seeded in 2 mL on glass coverslips in each well of a six-well dish, treated with nothing (NT), 9 μM erastin or 1.1 μM camptothecin (CPT) in growth medium for 18 hours while incubating at 37° C. with 5% CO2. Nuclei were stained with 25 μg/mL Hoechst 33342 (Molecular Probes) and viewed using an oil immersion 100× objective on a fluorescence microscope.

[2] = system: BJ-TERT/LT/ST/RAS^V12 tumorigenic cells; assay: Calcein AM viability assay, dilution series; format: cell-based, human; details: ST- and RAS^V12-dependent
Source text: (§1) Described here is work carried out to identify compounds with increased potency or activity in the presence of hTERT, LT, ST, E6, E7 or RAS^V12. Although the work described herein made use of hTERT, LT, ST, E6, E7 and RAS^V12 as transforming genes, future studies can make use of a wide variety of cancer-associated alleles using this methodology in order to define the signaling networks that involve many oncogenes and tumor suppressors. Engineered cell lines with these genetic elements were used to screen 23,550 compounds, including 20,000 compounds from a combinatorial library, 1,990 compounds from the National Cancer Institute diversity collection, and 1,540 biologically active known compounds that were selected and purchased by Applicant and formatted into a screenable collection. […] Cell viability was measured using the dye calcein acetoxymethyl ester (calcein AM) (Wang et al., 1993, Hum. Immunol. 37, 264-270), which is a non-fluorescent compound that freely diffuses into cells. […]
(§2) Calcein acetoxylmethyl ester (AM) is a cell membrane-permeable, non-fluorescent compound that is cleaved by intracellular esterases to form the anionic, cell-impermeable, fluorescent compound calcein. […] Total fluorescence intensity in each well was recorded on a Packard Fusion platereader, and converted to a percent inhibition of signal by subtracting the instrument background and dividing by the average signal obtained when cells were not treated with any compound. […]
(§3) Mean RFU (relative fluorescence units) for untreated cells was calculated by averaging columns 1, 2, and 23 (wells with cells but lacking compounds). The calcein background was calculated by averaging column 24 (wells with calcein, but lacking cells). Percentage inhibition of each well was calculated as [1−(RFU−calcein control)/(untreated cell−calcein control)*100]. […]

BJ primary cells = assay: Calcein AM viability assay, dilution series; format: cell-based, human
Source text: as §1, §2, §3

SMILES | Antitumor effect in HT-1080 xenografts (HT-1080 xenografts) | Antitumor effect in PANC-1 xenografts (PANC-1 xenografts) | also measured
CCOc1ccccc1-n1c(C(C)N2CCNCC2)nc2ccccc2c1=O (centres unmarked) [Compound 6] | induction of tumor growth inhibition | induction of tumor growth inhibition | –
CC[C@@]1(O)C(=O)OCc2c1cc1n(c2=O)Cc2cc3ccccc3nc2-1 [Camptothecin] | – | – | Type of cell death / nuclear morphology [1]: karyorhexis and margination of chromatin were clearly visible
CCOc1ccccc1-n1c(C(C)N2CCN(C(=O)COc3ccc(Cl)cc3)CC2)nc2ccccc2c1=O (centres unmarked) [Erastin] | – | – | Time to irreversible cell death [2]: 12 to 24 h
CCOc1ccccc1-n1c(CN2CCNCC2)nc2ccccc2c1=O [Compound 5, 3-(2-ethoxyphenyl)-2-(piperazin-1-ylmethyl)quinazolin-4(3H)-one] | induction of robust tumor regression | induction of tumor regression | –
C=C1[C@@H](O)[C@@H]2O[C@]3(CC[C@H](/C=C/[C@@H](C)[C@@H]4CC(C)=C[C@@]5(O[C@H](C[C@@](C)(O)C(=O)O)CC[C@H]5O)O4)O3)CC[C@H]2O[C@@H]1[C@@H](O)C[C@H](C)[C@H]1O[C@@]2(CCCCO2)CC[C@H]1C [okadaic acid] | – | – | Sensitization of BJ primary cells to camptothecin (BJ primary cells; okadaic acid 3.4 nM with camptothecin): renders BJ cells sensitive to camptothecin; Effect on calcein AM viability staining of BJ cells (BJ primary cells; okadaic acid alone at 3.4 nM): no effect on its own
